This passage reports IC50 results from US20250145585A1, “HETEROCYCLIC INHIBITORS OF IGF-1R FOR TREATMENT OF DISEASE” (HORIZON THERAPEUTICS IRELAND DAC, priority 2023, published 2025).

Bounds are passed on as bounds.

For this assay, the target named is T1, IGF-1R (Homo sapiens, UniProt P08069).
T1 construct: expressed in transfected cells
The experiment in a line: Example B-1: IGF-1R Assay (PC3 cells stimulated with IGF1, AlphaLISA on cell lysates). The format is cell-based. The settings on record: compound two hours, IGF1 200 ng/mL for 30 min, read-out: IC50, Biological Activity against IGF-1R (Table B1). The method in brief: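 IC50 from AlphaLISA read-out of lysed PC3 cells, percent inhibition normalized between vehicle and EC80 controls. Before lysis, cells had 2 h serum-free starvation, 2 h exposure to compound in 3× dilution series, and 30 min IGF1 stimulation at final 200 ng/mL.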

T1 sequence (P08069 31-1367): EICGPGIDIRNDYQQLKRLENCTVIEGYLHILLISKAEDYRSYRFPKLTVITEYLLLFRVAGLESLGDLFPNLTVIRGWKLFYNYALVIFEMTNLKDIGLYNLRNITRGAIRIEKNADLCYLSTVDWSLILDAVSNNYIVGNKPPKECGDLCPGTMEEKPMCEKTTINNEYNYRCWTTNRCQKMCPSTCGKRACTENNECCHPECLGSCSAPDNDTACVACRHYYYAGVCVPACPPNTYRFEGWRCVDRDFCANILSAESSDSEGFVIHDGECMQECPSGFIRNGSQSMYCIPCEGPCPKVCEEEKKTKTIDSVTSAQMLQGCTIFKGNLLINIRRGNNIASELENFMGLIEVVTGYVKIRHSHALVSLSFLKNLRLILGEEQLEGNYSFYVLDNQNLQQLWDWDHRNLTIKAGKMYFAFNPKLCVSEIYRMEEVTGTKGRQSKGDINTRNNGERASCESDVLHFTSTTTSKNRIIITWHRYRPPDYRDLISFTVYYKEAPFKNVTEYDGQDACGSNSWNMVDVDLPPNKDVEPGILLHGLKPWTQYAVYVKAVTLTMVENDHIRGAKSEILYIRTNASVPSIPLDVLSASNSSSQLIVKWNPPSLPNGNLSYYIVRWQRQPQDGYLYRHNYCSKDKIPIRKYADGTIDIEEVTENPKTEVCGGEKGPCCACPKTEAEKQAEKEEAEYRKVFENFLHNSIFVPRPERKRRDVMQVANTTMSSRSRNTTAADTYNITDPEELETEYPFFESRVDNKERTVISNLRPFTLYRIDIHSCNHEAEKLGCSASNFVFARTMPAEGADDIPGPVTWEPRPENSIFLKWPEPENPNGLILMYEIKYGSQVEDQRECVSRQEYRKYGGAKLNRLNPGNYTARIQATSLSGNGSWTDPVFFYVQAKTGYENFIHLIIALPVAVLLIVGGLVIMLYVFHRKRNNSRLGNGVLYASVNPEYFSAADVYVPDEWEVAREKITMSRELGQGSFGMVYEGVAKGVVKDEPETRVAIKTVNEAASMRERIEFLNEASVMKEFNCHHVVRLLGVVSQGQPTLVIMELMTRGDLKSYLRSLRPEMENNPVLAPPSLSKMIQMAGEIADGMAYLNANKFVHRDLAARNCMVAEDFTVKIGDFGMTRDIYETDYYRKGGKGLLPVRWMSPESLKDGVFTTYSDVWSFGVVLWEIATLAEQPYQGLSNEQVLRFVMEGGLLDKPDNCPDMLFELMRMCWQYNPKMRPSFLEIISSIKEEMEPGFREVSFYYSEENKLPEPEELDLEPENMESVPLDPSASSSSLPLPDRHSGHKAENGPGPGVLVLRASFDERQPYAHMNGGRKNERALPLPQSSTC

For the molecule `CC(C)Nc1nccc(CN2C(=O)N(c3ccc(SC(F)(F)F)cc3)C(=O)C2(C)C)c1F` [Compound 382, 1-((3-fluoro-2-(isopropylamino)pyridin-4-yl)methyl)-5,5-dimethyl-3-(4-((trifluoromethyl)thio)phenyl) imidazolidine-2,4-dione], the concentration for half-maximal inhibition (IC50) was 2000 to 10000 nM.
On to `CC(C)(C)c1ccc(N2C(=O)N(Cc3ccnc(NC45CC(C4)C5)c3)C(C)(C)C2=O)cc1` [Compound 276, 1-((2-(bicyclo[1.1.1]pentan-1-ylamino)pyridin-4-yl)methyl)-3-(4-(tert-butyl)phenyl)-5,5-dimethylimidazolidine-2,4-dione], for which the IC50 is at most 500 nM.
`CC1(C)C(=O)N(c2ccc(SC(F)(F)F)cc2)C(=O)N1Cc1ccnc2[nH]cc(Cl)c12` [Compound 5, 1-((3-chloro-1H-pyrrolo[2,3-b]pyridin-4-yl)methyl)-5,5-dimethyl-3-(4-((trifluoromethyl)thio)phenyl)imidazolidine-2,4-dione]: the IC50 is at most 500 nM.
Turning to `CC(C)Nc1cc(CN2C(=O)N(c3ccc(C4CC(F)(F)C4)cc3)C(=O)C2(C)C)ccn1` [Compound 102, 3-(4-(3,3-difluorocyclobutyl)phenyl)-1-((2-(isopropylamino)pyridin-4-yl)methyl)-5,5-dimethylimidazolidine-2,4-dione], the concentration for half-maximal inhibition (IC50) is 500 to 2000 nM.
With `CC1(C)C(=O)N(c2ccc(SC(F)(F)F)cc2)C(=O)N1Cc1ccnc(NC(=O)NC2CCOCC2)c1` [Compound 306, 1-(4-((5,5-dimethyl-2,4-dioxo-3-(4-((trifluoromethyl)thio)phenyl)imidazolidin-1-yl)methyl)pyridin-2-yl)-3-(tetrahydro-2H-pyran-4-yl)urea], the half-inhibitory concentration (IC50) is at most 500 nM.
In the case of `COc1cc(NC(=O)Nc2cc(CN3C(=O)N(c4ccc(SC(F)(F)F)cc4)C(=O)C3(C)C)ccn2)ccc1O[C@H]1C[C@@H](N(C)C)C1` [Compound 351, 1-(4-((5,5-dimethyl-2,4-dioxo-3-(4-((trifluoromethyl)thio)phenyl)imidazolidin-1-yl)methyl)pyridin-2-yl)-3-(4-((1s,3s)-3-(dimethylamino)cyclobutoxy)-3-methoxyphenyl)urea] it was at most 500 nM; in that of `CC1(C)C(=O)N(c2ccc(SC(F)(F)F)cc2)C(=O)N1Cc1cc(N)ncn1` [Compound 396, 1-((6-aminopyrimidin-4-yl)methyl)-5,5-dimethyl-3-(4-((trifluoromethyl)thio)phenyl) imidazolidine-2,4-dione], at most 500 nM.
For `CC1(C)CNc2ncc(CN3C(=O)N(c4ccc(SC(F)(F)F)cc4)C(=O)C3(C)C)cc21` [Compound 405, 1-((3,3-dimethyl-2,3-dihydro-1H-pyrrolo[2,3-b]pyridin-5-yl)methyl)-5,5-dimethyl-3-(4-((trifluoromethyl)thio)phenyl) imidazolidine-2,4-dione], the IC50 fell in the range of 2000 to 10000 nM.
For `CC1(C)C(=O)N(c2ccc(C3(C(F)(F)F)CC3)cc2)C(=O)N1Cc1ccnc2[nH]ccc12` [Compound 7, 1-((1H-pyrrolo[2,3-b]pyridin-4-yl)methyl)-5,5-dimethyl-3-(4-(1-(trifluoromethyl)cyclopropyl)phenyl)imidazolidine-2,4-dione], the IC50 was at most 500 nM.
Regarding `CC1(C)C(=O)N(c2ccc([S+]([O-])C(F)(F)F)cc2)C(=O)N1Cc1ccnc(N)c1` (centres unmarked) [Compound 393, 1-((2-aminopyridin-4-yl)methyl)-5,5-dimethyl-3-(4-((trifluoromethyl)sulfinyl)phenyl) imidazolidine-2,4-dione], the IC50 was at most 500 nM.
As for `COC[C@H](C)Nc1cc(CN2C(=O)N(c3ccc(C4(C(F)(F)F)CC4)cc3)C(=O)C2(C)C)ccn1` [Compound 105, (S)-1-((2-((1-methoxypropan-2-yl)amino)pyridin-4-yl)methyl)-5,5-dimethyl-3-(4-(1-(trifluoromethyl)cyclopropyl)phenyl) imidazolidine-2,4-dione], the IC50 was at most 500 nM.
Consider `CC1(C)C(=O)N(c2ccc(SC(F)(F)F)cc2)C(=O)N1Cc1ccnc(NC(=O)Nc2ccc(C#N)cc2)c1` [Compound 376, 1-(4-cyanophenyl)-3-(4-((5,5-dimethyl-2,4-dioxo-3-(4-((trifluoromethyl)thio)phenyl)imidazolidin-1-yl)methyl)pyridin-2-yl)urea], for which the half-inhibitory concentration (IC50) is at most 500 nM.
With `CC1(C)C(=O)N(c2ccc(SC(F)(F)F)cc2)C(=O)N1Cc1ccnc(NC(=O)Nc2ccc(Cl)cc2)c1` [Compound 377, 1-(4-chlorophenyl)-3-(4-((5,5-dimethyl-2,4-dioxo-3-(4-((trifluoromethyl)thio)phenyl)imidazolidin-1-yl)methyl)pyridin-2-yl)urea] the figure was 500 to 2000 nM.
With `Cn1cc(CNc2cc(CN3C(=O)N(c4ccc(SC(F)(F)F)cc4)C(=O)C3(C)C)ccn2)cn1` [Compound 301, 5,5-dimethyl-1-((2-(((1-methyl-1H-pyrazol-4-yl)methyl)amino)pyridin-4-yl)methyl)-3-(4-((trifluoromethyl)thio)phenyl)imidazolidine-2,4-dione], the IC50 was at most 500 nM.
Regarding `CC1(C)C(=O)N(c2ccc(C3CCOC3)cc2)C(=O)N1Cc1ccnc(N)c1` (centres unmarked) [Compound 85, 1-((2-aminopyridin-4-yl)methyl)-5,5-dimethyl-3-(4-(tetrahydrofuran-3-yl)phenyl)imidazolidine-2,4-dione], the 50% inhibitory concentration (IC50) lay in the range of 500 to 2000 nM.
For `CC1(C)C(=O)N(c2ccc(C(F)(F)F)cc2)C(=O)N1Cc1ccnc(N)c1` [Compound 91, 1-((2-aminopyridin-4-yl)methyl)-5,5-dimethyl-3-(4-(trifluoromethyl)phenyl)imidazolidine-2,4-dione], the IC50 lay in the range of 2000 to 10000 nM.
Turning to `CC(C)Nc1cc(CN2C(=O)N(c3ccc(C4(C(F)(F)F)CCC4)cc3)C(=O)C2(C)C)ccn1` [Compound 115, 1-((2-(isopropylamino)pyridin-4-yl)methyl)-5,5-dimethyl-3-(4-(1-(trifluoromethyl)cyclobutyl)phenyl) imidazolidine-2,4-dione], the IC50 was at most 500 nM.
`CC(C)(C)c1ccc(N2C(=O)N(Cc3ccnc4[nH]cc(Cl)c34)C(C)(C)C2=O)cc1` [Compound 6, 3-(4-(tert-butyl)phenyl)-1-((3-chloro-1H-pyrrolo[2,3-b]pyridin-4-yl)methyl)-5,5-dimethylimidazolidine-2,4-dione]: the half-inhibitory concentration (IC50) was at most 500 nM.
With `CC(C)(C)Nc1cc(CN2C(=O)N(c3ccc(SC(F)(F)F)cc3)C(=O)C2(C)C)ccn1` [Compound 387, 1-((2-(tert-butylamino)pyridin-4-yl)methyl)-5,5-dimethyl-3-(4-((trifluoromethyl)thio)phenyl) imidazolidine-2,4-dione] the figure was 500 to 2000 nM; with `Cc1ccncc1Nc1cc(CN2C(=O)N(c3ccc(SC(F)(F)F)cc3)C(=O)C2(C)C)ccn1` [Compound 358, 5,5-dimethyl-1-((2-((4-methylpyridin-3-yl)amino)pyridin-4-yl)methyl)-3-(4-((trifluoromethyl)thio)phenyl) imidazolidine-2,4-dione], at most 500 nM; with `CC(C)Nc1cc(CN2C(=O)N(c3ccc(C4(C)CC(F)(F)C4)cc3)C(=O)C2(C)C)ccn1` [Compound 116, 3-(4-(3,3-difluoro-1-methylcyclobutyl)phenyl)-1-((2-(isopropylamino)pyridin-4-yl)methyl)-5,5-dimethylimidazolidine-2,4-dione], at most 500 nM.
Consider `CC1(C)C(=O)N(c2ccc(SC(F)(F)F)cc2)C(=O)N1Cc1ccnc(NC(=O)NC2CCOC2)c1` (centres unmarked) [Compound 303, 1-(4-((5,5-dimethyl-2,4-dioxo-3-(4-((trifluoromethyl)thio)phenyl)imidazolidin-1-yl)methyl)pyridin-2-yl)-3-(tetrahydrofuran-3-yl)urea], for which the IC50 was at most 500 nM.
`CC1(C)C(=O)N(c2ccc(SC(F)(F)F)cc2)C(=O)N1Cc1ccnc(NC(=O)NC23CCC(CC2)C3)c1` [Compound 304, 1-(bicyclo[2.2.1]heptan-1-yl)-3-(4-((5,5-dimethyl-2,4-dioxo-3-(4-((trifluoromethyl)thio)phenyl)imidazolidin-1-yl)methyl)pyridin-2-yl)urea]: the 50% inhibitory concentration (IC50) lay in the range of 500 to 2000 nM.
As for `Nc1cc(CN2C(=O)N(c3ccc(SC(F)(F)F)cc3)C(=O)[C@@H]2C2CCCCC2)ccn1` [Compound 296, (S)-1-((2-aminopyridin-4-yl)methyl)-5-cyclohexyl-3-(4-((trifluoromethyl)thio)phenyl)imidazolidine-2,4-dione], the IC50 was above 10000 nM.
On to `CC1(C)C(=O)N(c2ccc(C3(C(F)(F)F)CC3)cc2)C(=O)N1Cc1ccnc2[nH]cc(Br)c12` [Compound 8, 1-((3-bromo-1H-pyrrolo[2,3-b]pyridin-4-yl)methyl)-5,5-dimethyl-3-(4-(1-(trifluoromethyl)cyclopropyl)phenyl)imidazolidine-2,4-dione], for which the half-maximal inhibitory concentration (IC50) is at most 500 nM.
Turning to `CC1(C)C(=O)N(c2ccc(SC(F)(F)F)cc2)C(=O)N1Cc1ncnc2[nH]ccc12` [Compound 3, 1-((7H-pyrrolo[2,3-d]pyrimidin-4-yl)methyl)-5,5-dimethyl-3-(4-((trifluoromethyl)thio)phenyl)imidazolidine-2,4-dione], the IC50 was at most 500 nM.
Consider `CC1(C)C(=O)N(c2ccc(SC(F)(F)F)cc2)C(=O)N1Cc1ccnc(Nc2cccc(O)n2)c1` [Compound 362, 1-((2-((6-hydroxypyridin-2-yl)amino)pyridin-4-yl)methyl)-5,5-dimethyl-3-(4-((trifluoromethyl)thio)phenyl) imidazolidine-2,4-dione], for which the IC50 is 500 to 2000 nM.
In the case of `CC(C)Nc1cc(CN2C(=O)N(c3ccc(SC(F)(F)F)cc3)C(=O)C2(C)C)c(F)cn1` [Compound 384, 1-((5-fluoro-2-(isopropylamino)pyridin-4-yl)methyl)-5,5-dimethyl-3-(4-((trifluoromethyl)thio)phenyl) imidazolidine-2,4-dione] it was at most 500 nM; in that of `CC1(C)C(=O)N(c2ccc(SC(F)(F)F)cc2)C(=O)N1Cc1ccnc(NCC(F)(F)F)c1` [Compound 313, 5,5-dimethyl-1-((2-((2,2,2-trifluoroethyl)amino)pyridin-4-yl)methyl)-3-(4-((trifluoromethyl)thio)phenyl) imidazolidine-2,4-dione], 500 to 2000 nM.

For orientation: IC50 means the concentration needed to halve the response being measured.
